Assay results taken from the NIST ThermoML archive (doi:10.1021/je900596d).

Conditions: 323.21 K, Fluid (supercritical or subcritical phases), Vibrating tube method

FC(F)=C(F)C(F)(F)F [hexafluoropropene]
Conditions	mass density [kg/m3]
17.7 kPa	0.97
21.7 kPa	1.12
25.1 kPa	1.38
28.9 kPa	1.62
32.8 kPa	1.83
36.6 kPa	2.07
40.3 kPa	2.22
44.1 kPa	2.51
47.8 kPa	2.68
51.6 kPa	2.99
55.2 kPa	3.08
58.9 kPa	3.32
62.6 kPa	3.51
66.1 kPa	3.74
69.7 kPa	3.92
73.2 kPa	4.09
76.7 kPa	4.26
80.2 kPa	4.49
83.7 kPa	4.72
87.1 kPa	4.86
90.6 kPa	5.07
94.4 kPa	5.41
98.1 kPa	5.54
101.5 kPa	5.74
105.2 kPa	6.02
112.5 kPa	6.44
116.2 kPa	6.58
119.7 kPa	6.8
123.2 kPa	7
126.7 kPa	7.23
130.2 kPa	7.42
133.8 kPa	7.66
137.6 kPa	7.92
141.6 kPa	8.08
145.4 kPa	8.32
149.3 kPa	8.52
153.2 kPa	8.77
157.1 kPa	8.98
160.9 kPa	9.22
164.8 kPa	9.47
168.8 kPa	9.71
172.6 kPa	9.88
176.5 kPa	10.13
180.3 kPa	10.38
184.3 kPa	10.62
188.1 kPa	10.76
195.8 kPa	11.28
199.7 kPa	11.49
203.6 kPa	11.86
207.4 kPa	12.01
211.1 kPa	12.24
215 kPa	12.39
218.8 kPa	12.6
222.7 kPa	12.84
226.4 kPa	13.16
230.2 kPa	13.39
233.8 kPa	13.5
237.7 kPa	13.84
241.4 kPa	14.08
245.2 kPa	14.29
249 kPa	14.46
252.7 kPa	14.72
260.3 kPa	15.25
268.1 kPa	15.67
272.2 kPa	15.98
276.4 kPa	16.15
280.6 kPa	16.35
284.7 kPa	16.67
288.7 kPa	16.87
292.9 kPa	17.17
297.1 kPa	17.47
301.3 kPa	17.8
305.4 kPa	17.98
309.6 kPa	18.21
313.9 kPa	18.45
318 kPa	18.81
322 kPa	19
326.2 kPa	19.25
330.3 kPa	19.52
334.5 kPa	19.75
338.7 kPa	20.05
342.9 kPa	20.26
347 kPa	20.58
351.2 kPa	20.86
355.4 kPa	21.13
359.5 kPa	21.34
363.6 kPa	21.63
367.7 kPa	21.82
371.9 kPa	22.12
376 kPa	22.33
380 kPa	22.69
384.1 kPa	22.94
388.2 kPa	23.18
392.3 kPa	23.49
396.4 kPa	23.69
404.4 kPa	24.26
408.5 kPa	24.53
412.5 kPa	24.78
416.5 kPa	25
420.6 kPa	25.28
424.6 kPa	25.54
432.5 kPa	26.08
436.6 kPa	26.31
444.4 kPa	26.88
448.4 kPa	27.13
487.5 kPa	29.75
499 kPa	30.39
510.4 kPa	31.18
521.8 kPa	31.98
533.3 kPa	32.74
544.4 kPa	33.53
555.6 kPa	34.31
566.8 kPa	35.09
577.8 kPa	35.78
588.8 kPa	36.55
599.7 kPa	37.33
610.7 kPa	38.21
621.5 kPa	38.96
632.3 kPa	39.67
643 kPa	40.4
653.8 kPa	41.25
664.3 kPa	42.12
675 kPa	42.78
687.2 kPa	43.61
697.7 kPa	44.47
708.1 kPa	45.16
721.9 kPa	46.18
735.5 kPa	47.22
747.6 kPa	48.18
759.6 kPa	49.01
769.7 kPa	49.86
784.6 kPa	50.99
799.5 kPa	52.13
814.1 kPa	53.28
